Experimental data: US20230312605A1, “PYRROLO[2,1-F][1,2,4]TRIAZINES AND PREPARATION AND USES THEREOF” (BioSplice Therapeutics, Inc., priority 2021, published 2023)

Target: recombinant DYRK1A kinase (Homo sapiens (Human), UniProt Q13627)
Test: DYRK1A kinase assay (Ser/Thr 18 peptide Z-lyte FRET assay)
Format: biochemical
Details: recombinant DYRK1A 0.25 µg/mL, ATP 15 µM, Ser/Thr peptide 18 4 µM, one hour at room temperature; table head prints EC50, method says IC50
Method: Representative compounds were screened using the assay procedure for DYRK1A kinase activity as described below.
Each compound was dissolved in DMSO as a 10 mM stock and used to prepare compound source plates. Serial dilution (1:3, 11-point dose-response curves from 10 µM to 0.00016 µM) and compound transfer was performed using the ECHO 550 (Labcyte, Sunnyvale, CA) into 1536-well black-walled round bottom plates (Corning).
The DYRK1A kinase assay was run using the Ser/Thr 18 peptide Z-lyte assay kit according to manufacturer’s instructions (Life Technologies- a Division of Thermo-Fisher). This is a non-radioactive assay using fluorescence resonance energy transfer (FRET) between coumarin and fluorescein to detect kinase activity which is represented as a ratio of coumarin emission/fluorescein emission.
Briefly, recombinant DYRK1A kinase, ATP and Ser/Thr peptide 18 were prepared in 1X Kinase buffer to final concentrations of 0.25 µg/mL, 15 µM, and 4 µM respectively. The mixture was allowed to incubate with the representative compounds for one hour at room temperature. All reactions were performed in duplicate. Unphosphorylated (“0% Control”) and phosphorylated (“100% control”) forms of Ser/Thr 18 served as control reactions. Additionally, an 11-point dose-response curve of Staurosporine (1uM top) was run to serve as a positive compound control.
After incubation, Development Reagent A was diluted in Development Buffer then added to the reaction and allowed to further incubate for one hour at room temperature. The plate was read at Ex 400 Em 455 to detect the coumarin signal and Ex 400 Em 520 to measure the signal (EnVision Multilabel Plate Reader, PerkinElmer).
The Emission ratio (Em) was calculated as a ratio of the coumarin (C) emission signal (at 445 nm)/Fluorescein (F) emission signal (at 520 nm). The percent phosphorylation was then calculated using the following formula: [1 — ((Em ratio X F100%)—C100%)/ ((C0%—C100%) + (Em ratio X (F100% - F0%)))]. Dose-response curves were generated, and inhibitory concentration (IC50) values were calculated using non-linear regression curve fit in the Dotmatics’ Studies Software (Bishops Stortford, UK).

| Structure (SMILES) | EC50 [nM] |
| --- | --- |
| Cc1nc2ccc(-c3ccn4nc(N[C@@H]5[C@@H]6COC[C@@H]65)ncc34)nc2n1CC(F)F [Compound 1914, N-((lR,5S,6s)-3-Oxabicyclo[3.1.0]hexan-6-yl)-5-(3-(2,2-difluoroethyl)-2-methyl-3H-imidazo[4,5-b]pyridin-5-yl)pyrrolo[2,1-f][1,2,4]triazin-2-amine] | 5 |
| Cc1nc2ccc(-c3ccn4nc(N[C@H]5CC[C@@](C)(O)CC5)ncc34)nc2n1CC1COC1 [Compound 1875, cis-1-Methyl-4-((5-(2-methyl-3-(oxetan-3-ylmethyl)-3H-imidazo[4,5-b]pyridin-5-yl)pyrrolo[2,1-f][1,2,4]triazin-2-yl)amino)cyclohexan-1-ol] | 14 |
| Cc1nc2ccc(-c3ccn4nc(NC5CCC(F)(F)CC5)ncc34)nc2n1CC(C)(C)O [Compound 1870, 1-(5-(2-((4,4-Difluorocyclohexyl)amino)pyrrolo[2,1-f][1,2,4]triazin-5-yl)-2-methyl-3H-imidazo[4,5-b]pyridin-3-yl)-2-methylpropan-2-ol] | 78 |
| c1cn2cc(-c3ccn4nc(NC5CCOCC5)ncc34)ccc2n1 [Compound 67, 5-(Imidazo[1,2-a]pyridin-6-yl)-N-(tetrahydro-2H-pyran-4-yl)pyrrolo[2,1-f] [1,2,4]triazin-2-amine] | 40 |
| Cc1nc2ccc(-c3ccn4nc(N[C@@H]5CCOC[C@H]5F)ncc34)nc2n1CC(F)F [Compound 1912, 5-(3-(2,2-Difluoroethyl)-2-methyl-3H-imidazo[4,5-b]pyridin-5-yl)-N-((3S,4R)-3-fluorotetrahydro-2H-pyran-4-yl)pyrrolo[2,1-f] [1,2,4]triazin-2-amine] | 7 |
| Cc1nc2ccc(-c3ccn4nc(N[C@H]5CN(C)C[C@@H]5F)ncc34)nc2n1CC(F)F [Compound 1901, 5-(3-(2,2-Difluoroethyl)-2-methyl-3H-imidazo[4,5-b]pyridin-5-yl)-N-((3S,4S)-4-fluoro-1-methylpyrrolidin-3-yl)pyrrolo [2,1-f] [1,2,4]triazin-2-amine] | 4 |
| CC(C)CN1CC2(CC(Nc3ncc4c(-c5ccc6ncccc6c5)ccn4n3)C2)C1 [Compound 1771, N-(2-isobutyl-2-azaspiro[3.3]heptan-6-yl)-5-(quinolin-6-yl)pyrrolo[2,1-f] [1,2,4]triazin-2-amine] | 5 |
| CCc1cnc2ncc(-c3ccn4nc(NCC(C)(C)F)ncc34)cn12 [Compound 429, 5-(3-Ethylimidazo[1,2-a]pyrimidin-6-yl)-N-(2-fluoro-2-methylpropyl) pyrrolo[2,1-f] [1,2,4]triazin-2-amine] | 654 |
| C[C@H](Nc1ncc2c(-c3cnc4nccn4c3)ccn2n1)C1CC1 [Compound 230, (S)-N-(1-Cyclopropylethyl)-5-(imidazo[1,2-a]pyrimidin-6-yl)pyrrolo[2,1-f] [1,2,4]triazin-2-amine] | 58 |
| FC1(F)CCC(Nc2ncc3c(-c4ccc5nccnc5c4)ccn3n2)CC1 [Compound 1392, N-(4,4-Difluorocyclohexyl)-5-(quinoxalin-6-yl)pyrrolo[2,1-f][1,2,4]triazin-2-amine] | 529 |
| Cc1nc2ccc(-c3ccn4nc(NC5CC(F)(F)C5)ncc34)nc2n1CC(F)F [Compound 1088, N-(3,3-Difluorocyclobutyl)-5-(3-(2,2-difluoroethyl)-2-methyl-3H-imidazo [4,5-b]pyridin-5-yl)pyrrolo[2,1-f][1,2,4]triazin-2-amine] | 4 |
| CC(C)(CNc1ncc2c(-c3cnc4nccn4c3)ccn2n1)C(F)(F)F [Compound 221, 5-(Imidazo[1,2-a]pyrimidin-6-yl)-N-(3,3,3-trifluoro-2,2-dimethylpropyl) pyrrolo[2,1-f][1,2,4]triazin-2-amine] | 29 |
| C[C@@H](Nc1ncc2c(-c3cnc4nccn4c3)ccn2n1)C1CC1 [Compound 231, (R)-N-(1-Cyclopropylethyl)-5-(imidazo[1,2-a]pyrimidin-6-yl)pyrrolo[2,1-f] [1,2,4]triazin-2-amine] | 28 |
| CC(C)Nc1ncc2c(-c3cnc4nccn4c3)ccn2n1 [Compound 214, 5-(Imidazo[1,2-a]pyrimidin-6-yl)-N-isopropylpyrrolo[2,1-f][1,2,4]triazin-2-amine] | 33 |

Further lines, results first:

| EC50 [nM] | Structure (SMILES) |
| --- | --- |
| 9 | Cc1nc2ncc(-c3ccn4nc(NC5CCN(CCC(F)(F)F)CC5)ncc34)cc2n1CC(F)F [Compound 1883, 5-(1-(2,2-Difluoroethyl)-2-methyl-1H-imidazo[4,5-b]pyridin-6-yl)-N-(1-(3,3,3-trifluoropropyl)piperidin-4-yl)pyrrolo[2,1-f][1,2,4]triazin-2-amine] |
| 3 | Cc1nc2ccc(-c3ccn4nc(N[C@H]5C[C@@](C)(O)C5)ncc34)nc2n1CC(F)F [Compound 1819, cis-3-((5-(3-(2,2-Difluoroethyl)-2-methyl-3H-imidazo [4,5-b]pyridin-5-yl)pyrrolo[2,1-f] [1,2,4]triazin-2-yl)amino)-1-methylcyclobutan-1-ol] |
| 4 | Cc1nc2ccc(-c3ccn4nc(N[C@H]5CC[C@@H](OCCO)CC5)ncc34)nc2n1CC(F)F [Compound 1839, 2-((cis-4-((5-(3-(2,2-difluoroethyl)-2-methyl-3H-imidazo[4,5-b]pyridin-5-yl)pyrrolo[2,1-f][1,2,4]triazin-2-yl)amino)cyclohexyl)oxy)ethan-1-ol] |
| 5 | Cc1nc2ccc(-c3ccn4nc(NC5CCN(C(=O)C6CC6)CC5)ncc34)nc2n1CC(F)F [Compound 1860] |
| 7 | Cc1nc2ncc(-c3ccn4nc(N[C@H]5CC[C@@H](OC(F)(F)F)CC5)ncc34)nc2n1CC(F)F [Compound 1970, 5-(1-(2,2-Difluoroethyl)-2-methyl-1H-imidazo[4,5-b]pyrazin-6-yl)-N-(cis-4-(trifluoromethoxy)cyclohexyl)pyrrolo[2,1-f][1,2,4]triazin-2-amine] |
| 18 | CN1CCC(Nc2ncc3c(-c4cnc5ncccc5c4)ccn3n2)CC1 [Compound 1557, N-(1 -Methylpiperidin-4-yl)-5-(1,8-naphthyridin-3-yl)pyrrolo [2,1-f] [1,2,4] triazin-2-amine] |
| 7 | Cc1nc2ncc(-c3ccn4nc(N[C@@H]5CCN(C)C[C@@H]5F)ncc34)cc2n1CC(F)F [Compound 1884, 5-(1-(2,2-Difluoroethyl)-2-methyl-1H-imidazo[4,5-b]pyridin-6-yl)-N-((3S,4R)-3-fluoro-1-methylpiperidin-4-yl)pyrrolo[2,1-f][1,2,4]triazin-2-amine] |
| 5 | [2H]C([2H])([2H])O[C@H]1CC[C@@H](Nc2ncc3c(-c4cnc5nccn5c4)ccn3n2)CC1 [Compound 1802, 5-(Imidazo[1,2-a]pyrimidin-6-yl)-N-(cis-4-(methoxy-ds)cyclohexyl)pyrrolo [2,1-f][1,2,4] triazin-2-amine] |
| 3 | CO[C@H]1CC[C@@H](Nc2ncc3c(-c4cnc5nc(C)n(CC(F)F)c5c4)ccn3n2)CC1 [Compound 685, 5-(1-(2,2-Difluoroethyl)-2-methyl-1H-imidazo[4,5-b]pyridin-6-yl)-N-(cis-4-methoxycyclohexyl)pyrrolo[2,1-f] [1,2,4]triazin-2-amine] |
| 3 | Cc1nc2ccc(-c3ccn4nc(N[C@H]5CCCOC5)ncc34)nc2n1CC(F)F [Compound 1864, (S)-5-(3-(2,2-Difluoroethyl)-2-methyl-3H-imidazo[4,5-b]pyridin-5-yl)-N-(tetrahydro-2H-pyran-3-yl)pyrrolo[2,1-f][1,2,4]triazin-2-amine] |
